Test results: patent US8993741B2, “SMNdelta7 degron: novel compositions and methods of use” (The Trustees of the University of Pennsylvania, priority 2009, dated 2015)
Peptide text beside a SMILES is read from it. * marks the point of attachment. Cbz = O=C(OCc1ccccc1)*

Legend:
Luc-SMNΔ7 = Luc-SMNΔ7 degradation with proteolysis inhibitors in the presence of CHX; type: cell-based, human; details: for effect on decrease in Luc-SMNΔ7 signal: 5 hours in the presence of CHX
Protocol: FIG. 5 is a graph depicting the effect of proteasome inhibitors on inhibiting SMNΔ7 degradation. Luciferase activity is measured after application of proteasome inhibitors (MG132 and Lactacystin), the calpain inhibitor (Calpeptin), the autophagy inhibitor (3-methyladenine; 3-MA), and the lysosomal inhibitor (ammonium chloride; NH4Cl) in the presence of CHX for 5 hours. Error bars represent SDs from three independent experiments.
(§1) Cells (293T cells) were transfected with plasmids expressing various constructs including Luc-SMN, Luc-SMNΔ7, GFP-YG+EMLA or GFP-NS. Forty-eight hours after transfection, the cells were treated with CHX (0.1 mg/ml) for various times as indicated and then assayed for luciferase activity. Luciferase activity at each time point was calculated by comparison to those at time 0, which was set to 100%. Luciferase activities were measured using One-Glo reagent (Promega).
SMN was previously shown to be degraded by the proteasome (Burnett et al., 2009, Mol Cell Biol 29(5):1107-15; Chang et al., 2004, Neurochem. Int. 45(7):1107-12). To determine if SMNΔ7 is also degraded by this system, cells expressing Luc-SMNΔ7 were treated with proteasome inhibitors including MG132 and Lactaeystin, for 5 hours in the presence of CHX. […] Inhibitors of other proteolytic activities, such as lysosomal proteases, autophagy, and calpain (N1-14Cl, 3-methyladenine, and calpeptin, respectively) had no effect.

SMNΔ7^S270A = assay: MG132 effect on amount of HA-tagged SMNΔ7^S270A (Western blot); type: cell-based, human; details: 10 μM MG132, 16 hours, 293T cells
Protocol: (§2) FIG. 3, comprising FIG. 3A through FIG. 3D, is a series of images depicting the importance of residue S270 for the activity of the SMNΔ7-DEG through YG+EMLA. FIG. 3A is a schematic illustration depicting seven residues in the YG box that were each mutated to alanine, as indicated. […] depicts the results of Western blot analyses using an anti-HA tag antibody directed against HA-tagged SMN, SMNΔ7, and SMNΔ7^S270A expressed in 293T cells treated with DMSO or 10 μM MG132 (MG) for 16 hours. Fusion proteins were monitored by, and Magoh was used as a control. FIG. 3C is a graph depicting the quantification of HA-tagged proteins depicted in FIG. 3B and compared to HA-SMN without MG132 treatment. Protein amount (%) for SMNΔ7, and SMNΔ7^S270A are calculated relative to HA-SMN not treated with MG132, that is arbitrarily set to 100%. The fold change of each fusion protein amount upon MG132 treatment is indicated in red above the column. […]
(§3) To identify specific residues in the SMN07-DEG that are important for its activity, mutagenesis of the YG box was performed wherein every second residue was converted to alanine in the context of full-length SMNΔ7 and determined the half-life of each in 293T cells. […] The levels of the tagged SMN proteins were then monitored by Western blots using anti-HA antibody (FIG. 3B).

SMN = assay: MG132 effect on amount of HA-tagged SMN (Western blot); type: cell-based, human; details: 10 μM MG132, 16 hours, 293T cells
Protocol: as §2, §3

SMNΔ7 = assay: MG132 effect on amount of HA-tagged SMNΔ7 (Western blot); type: cell-based, human; details: 10 μM MG132, 16 hours, 293T cells
Protocol: as §2, §3

S5 cells = assay: Rescue of S5 cell viability after tetracycline depletion of SMN; type: cell-based, chicken; details: retroviral expression, one week after tetracycline (1 μg/ml)
Protocol: FIG. 4, comprising FIG. 4A through FIG. 4D, is a series of images depicting the functionality of SMNΔ7^S270A in snRNP assembly and its ability to rescue SMN-deficient cells. FIG. 4 A is a series of panels depicting S5 cells cultured in the presence of tetracycline (1 μg/ml) to deplete endogenous SMN and infected with retroviruses expressing SMN, SMNΔ7, or SMNΔ7^S270A. FIG. 4B is a graph depicting cell growth as in FIG. 4A measured by monitoring the number of live cells at the indicated time points following tetracycline addition. FIG. 4C depicts the results of Western blot analyses of SMN protein in rescued cells (10 days after tetracycline addition). FIG. 4D is a graph depicting SMN complex activity (%) as measured by in vitro snRNP assembly on U4 snRNA in cytoplasmic extracts from rescued cells, using U4ΔSm RNA as a control.
S5 cells were maintained and infected with retroviruses expressing SMN, SMNΔ7, and SMNΔ7^S270A as described (Wang et al., 2001, J. Biol. Chem. 276:9599).
To determine whether SMNΔ7^S270A is a functional SMN protein, a previously established cell system, the S5 cell line, was used to investigate if SMNΔ7^S270A could rescue the viability of SMN-depleted cells. […]

293T cells = assay: Protein stability assay: luciferase activity of Luc-fused constructs after CHX treatment; type: cell-based
Source text: To construct plasmids expressing Luc-fused proteins, the luciferase gene was cloned into pcDNA3.1 vector at HindIII/KpnI sites, then DNA fragments encoding full-length wild type human SMN, SMNΔ7, several deletion mutants of SMNΔ7, and optiPEST were inserted into the KpnI/XhoI sites. SMNΔ7 mutants with single amino acid change were generated by mutating residues in YG+EMLA to alanine by Quickchange site-directed mutagenesis kit (Stratagene).
as §1
A reporter system that recapitulates the differential stability of full-length SMN and SMNΔ7 and allows quantitative assessment of SMNΔ7's instability determinants was developed. […] Forty-eight hours after transfection, cells were treated with the protein synthesis inhibitor cycloheximide (CHX), and luciferase activity was measured at time intervals of up to 10 hours. […]

With Cn1cnc(N)c2ncnc1-2 [3-methyladenine] the “effect on decrease in Luc-SMNΔ7 signal” value (Luc-SMNΔ7) was “no effect”.

With C[C@@H]1C[C@@H]([C@H](O)CC2CC(=O)NC(=O)C2)C(=O)[C@@H](C)C1 [CHX, cycloheximide] the “decrease in signal (luciferase)” value (Luc-SMNΔ7; CHX alone, 5 hours, cells expressing Luc-SMNΔ7) was 60%.

In the case of CC(=O)N[C@@H](CSC(=O)[C@]1([C@@H](O)C(C)C)NC(=O)[C@H](C)[C@@H]1O)C(=O)O [Lactacystin], the “effect on decrease in Luc-SMNΔ7 signal” value (Luc-SMNΔ7) is reported as “much smaller decrease”.

CC(C)C[C@@H](C=O)NC(=O)[C@H](CC(C)C)NC(=O)[C@H](CC(C)C)NC(=O)OCc1ccccc1 [MG132] (Cbz-Leu-Leu-Leu-aldehyde) was tested, and the “effect on the amount of SMNΔ7^S270A” value (SMNΔ7^S270A) was “only a moderate effect”, the “effect on decrease in Luc-SMNΔ7 signal” value (Luc-SMNΔ7) was “much smaller decrease” and the “effect on the amount of SMN” value (SMN) was “only a moderate effect”. The “increase in the amount of SMNΔ7” value (SMNΔ7) was 3.4 fold.

With Cl.N [N1-14Cl, ammonium chloride] the “effect on decrease in Luc-SMNΔ7 signal” value (Luc-SMNΔ7) was “no effect”.

CCCC[C@@H](C=O)NC(=O)[C@H](CC(C)C)NC(=O)OCc1ccccc1 [calpeptin] was tested, and the “effect on decrease in Luc-SMNΔ7 signal” value (Luc-SMNΔ7) was “no effect”.

“SMN: full-length wild type human survival of motor neurons protein, tested as Luc- or HA-fusion or retrovirally expressed” was tested, and the “rescue of viability of SMN-depleted S5 cells” value (S5 cells) was “rescued the viability of S5 cells”, the “half-life (t1/2)” value (293T cells; Luc fusion in 293T cells, CHX 0.1 mg/ml, up to 10 hours) was > 8 h and the “amount of SMN relative to SMNΔ7” value (293T cells; after 10 hours of CHX chase) was 3 times.
